This is an account of results in patent US20170275330A1, “POLYMORPHIC FORMS OF AN OXYSTEROL AND METHODS OF MAKING THEM” (Warsaw Orthopedic, Inc., priority 2016, published 2017).

≈ marks a conversion by molar mass, not a printed value.

One data set can be described thus: physchem. The following applies: acetone, organic solvent or mixture, thermodynamic from solid.
A short description of data set [1]: Solubility of OXY133 Form B in organic solvents. Particulars: ambient temperature of about 20° C.
Data set [2] in a line: Karl-Fisher (KF) water determination of isolated solid. The data set is classed as physicochemical. The following applies: for KF (water content determined by Karl Fischer water determination method): OXY133 sample, method/solvent system, processing point, temperature and time as in the table row; for KF (Wt %) water content of isolated solid: solid isolated from acetone/water slurry at 0, 10 or 25° C. An excerpt: Further, Table 8 below is a list of OXY133 polymorphs Forms A, B, C, D, E, F, G, H and I identified by a high performance liquid chromatography (HPLC) followed by charged aerosol detector (CAD) method. Table 4 also lists the starting products, the solvent system including solvent and anti-solvent, the temperature at which a polymorph was formed, the water content of the polymorph as determined by the Karl-Fisher (KF) method of water determination, and where available the yield and purity of the resulting polymorph.

Data set [3] can be described thus: X-ray powder diffraction (XRPD) identification of the crystal form. The data set is classed as physicochemical. Particulars: OXY133 sample, method/solvent system. The source says:
The many crystalline forms obtained by subjecting a slurry of OXY133 to different conditions of re-slurrying, recrystallizing from different solvent systems at different temperatures may be identified by many analytical methods, for example, XRPD, HPLC-CAD, DSC-TGA and others known in the art. In certain embodiments, the OXY133 polymorphs may be characterized, at least in part, by X-ray Powder Diffraction (XRPD). In particular, crystalline solids produce a distinctive diffraction pattern of peaks, represented in what is referred to as a diffractogram. The peak assignments for a given crystalline material, for example, degree 2θ values, may vary slightly, depending on the instrumentation used to obtain the diffractogram and certain other factors, for example, sample preparation. Nevertheless, these variations should not be more than +/−0.2 degrees 2θ and the relative spacing between the peaks in the diffractogram will always be the same, regardless of the instrumentation used or the method of sample preparation, and the like.
The equipment utilized to collect the XRPD patterns depicted in FIGS. 2A-13B was a Bruker D8 Advance diffractometer using Cu radiation (40 kV, 25 mA) with a divergence slit of 0.3° (0.6 mm), wherein variable slits must be operated in fixed mode. The axial Soller slits, primary and secondary were each set at 2.5°. The anti-scatter slit was set at 0.3° (0.6 mm). The secondary monochromator anti-scatter slit was set at 1 mm and the detector slit at 0.1 mm. If a secondary monochromator is not used, then a suitable […] must be used, namely a Ni filter for Cu radiation. The linear detector LYNXEYE was set at 30 detector opening with the angle scanned from 2 to 45° 2Θ.

Data set [4] is described as follows: DSC/TGA (differential scanning calorimetry and thermo-gravimetric analysis). The format is physicochemical. Particulars: isolated solid of Example 6. The protocol: Differential scanning calorimetry (DSC) and thermo-gravimetric analysis (TGA) were also collected for some of the OXY133 polymorphs. The equipment utilized to collect the DSC/TGA data was a Mettler Toledo DSC 2 equipped with an aluminum 40 μL crimped pan with a pin hole and the ramp rate was 10° C./min. DSC/TGA thermograms identifying several OXY133 polymorphs are illustrated in FIGS. 20-25.
(In general: Differential scanning calorimetry records heat flow against a reference as temperature is scanned.)

Data set [5] can be described thus: Stability of the crystal form on drying in a vacuum oven. The data set is classed as physicochemical. Particulars: drying at temperatures above about 20° C. to about 30° C. As to the method: 2.0 g anhydrous OXY133 was added to 10 mL isopropanol in a 100 mL polyblock reactor. The mixture was heated to 30° C. and then stirred at 30° C. for 45 minutes until the solids were dissolved completely. Acceptable heating temperatures ranged from 25° C. to 35° C. A polish filtration step can be added after dissolving the anhydrous OXY133. The mixture of anhydrous OXY133 and isopropanol was then cooled to 5° C. 20 mL of water was then added to the cooled mixture over 120 minutes at 5° C., resulting in the formation of a precipitate approximately one third of the way through the addition of water. The water addition can also be done in temperature ranges from about 0° C. to about 20° C. with no significant effect on the crystal structure. The resulting mixture of OXY133, isopropanol and water was then stirred at 5° C. for 18 hours. However, it is recommended that the resulting mixture could be mixed for at least 2 hours at 5° C. after the water addition was complete to ensure that all solids were precipitated from the solution. A white solid was collected by rapidly filtering the mixture and then washing the solid with 2.0 mL of an isopropanol:water mixture in a ratio of 1:2 v/v. The filtered and washed solids were then dried in a vacuum oven at 20′C. Acceptable temperatures for drying can range from about 20° C. to about 30′C.

The conditions of data set [6]: for stability in the acetone/water solvent system: acetone/water slurry.
The mark [7] stands for this setting: Table 8, processing point (slurry/solid/after drying), temperature and time as in the table row.
[8] abbreviates: Table 9, processing point, temperature.

For `CCCCCC[C@](C)(O)[C@H]1CC[C@H]2[C@@H]3C[C@H](O)[C@H]4C[C@@H](O)CC[C@]4(C)[C@H]3CC[C@@]21C` [Form B], the results for the solubility in the data set “physchem” (20 °C) and in “physchem” (56 °C) were approximately 10 mg/mL (≈ 23.8 mM) and approximately 80 mg/mL (≈ 190 mM), respectively. Further, in data set [1] (isopropanol), the “solubility in isopropanol (IPA)” value is “good”. Also, the solubility in tetrahydrofuran entry in data set [1] (tetrahydrofuran) was “good”.
On to `CCCCCC[C@](C)(O)[C@H]1CC[C@H]2[C@@H]3C[C@H](O)[C@H]4C[C@@H](O)CC[C@]4(C)[C@H]3CC[C@@]21C` [Form 2891-10-3], for which, in data set [2], the KF (water content determined by Karl Fischer water determination method) came to 4.02% and the “KF (Wt %) water content of isolated solid” value (“KF (Wt %) water content” below) stood at 4.02 Wt %. The “Crystal Form (XRPD)” value in data set [3] (setting [7]) is “Form A”. Further, in data set [3] (setting [8]), the “Crystal Form (XRPD)” value is “Form A”.
In turn, `CCCCCC[C@](C)(O)[C@H]1CC[C@H]2[C@@H]3C[C@H](O)[C@H]4C[C@@H](O)CC[C@]4(C)[C@H]3CC[C@@]21C.O` [OXY133 Monohydrate, (3S,5S,6S,8R,9S,10R,13S,14S,17S)-17-((S)-2-hydroxyoctan-2-yl)-10,13-dimethylhexadecahydro-1H-cyclopenta[a]phenanthrene-3,6-diol, monohydrate] displayed a KF water content in data set [2] (isolated solid of Example 6 (IPA/water 1:2, 5° C., dried at 20° C.)) of 4.07%. Also, the DSC/TGA in data set [4] is given as 4.76%. In data set [5], the “crystal form stability on drying” value was “slow conversion”.
`CCCCCC[C@](C)(O)[C@H]1CC[C@H]2[C@@H]3C[C@H](O)[C@H]4C[C@@H](O)CC[C@]4(C)[C@H]3CC[C@@]21C` [Form F]: in data set [6], the “stability in the acetone/water solvent system” value is given as “somewhat stable”. Also, in data set [6] (acetone/water system, stirred at about 20° C. or about 5° C.), the “conversion to any other polymorph forms” value is “would not convert”.
Consider `CCCCCC[C@](C)(O)[C@H]1CC[C@H]2[C@@H]3C[C@H](O)[C@H]4C[C@@H](O)CC[C@]4(C)[C@H]3CC[C@@]21C` [Form 2891-8-3], for which, in data set [2], the KF (water content determined by Karl Fischer water determination method) came to 3.25%. For the same molecule, in data set [2], the “KF (Wt %) water content” value was determined as 3.25 Wt %. The “Crystal Form (XRPD)” value in data set [3] (setting [7]) and in data set [3] (setting [8]) was “Form A” in each case.
Regarding `CCCCCC[C@](C)(O)[C@H]1CC[C@H]2[C@@H]3C[C@H](O)[C@H]4C[C@@H](O)CC[C@]4(C)[C@H]3CC[C@@]21C` [Form C], the “stability in the acetone/water solvent system” value in data set [6] is recorded as “fairly stable”. In data set [6] (slurry stirred at about 20° C. in acetone/water), the “conversion from Form C to Form A or Form B” value is listed as “no conversion”.
For `CCCCCC[C@](C)(O)[C@H]1CC[C@H]2[C@@H]3C[C@H](O)[C@H]4C[C@@H](O)CC[C@]4(C)[C@H]3CC[C@@]21C` [Form 2891-9-3], the KF (water content determined by Karl Fischer water determination method) in data set [2] came out at 3.83%. In data set [2], the “KF (Wt %) water content” value was found to be 3.83 Wt %. Moreover, the “Crystal Form (XRPD)” value in data set [3] (setting [7]) and in data set [3] (setting [8]) was “Form A” throughout.
